Here are results for four molecules from patent US20230381348A1, “BIFUNCTIONAL MACROCYCLIC CHELATE, CONJUGATE, METAL COMPLEX AND USE THEREOF” (Jyams Pet Research & Development Limited, priority 2021, published 2023).

Series [1] relates to LNCap cells. The series is described as follows: Experiment A internalization experiment. Format: cell-based. As to the method: (§1) LNCap cells were cultured to logarithmic growth phase. After digestion with pancreatin, the resultant mixture was adjusted with complete medium into a cell suspension with a cell density of […]. Cells were inoculated in 24-well plate with 0.5-1.0 mL cells per well and the number of 1×10^5 cells per well (inoculated 2 d in advance for cell experiment). ^177Lu-Dar, ^177Lu-Dar-PSMA-617, ^177Lu-DOTA, and ^177Lu-DOTA-PSMA-617 were respectively diluted with a basic medium (with 1% HSA added) to 10 μCi/mL for subsequent use.
(§2) Cells were incubated in 37° C. incubator for 1 h, 4 h, and 24 h.
Internalization experiment: after incubation was completed, the cell suspension was collected, 0.5 mL of pre-cooled pickling solution was added, after incubation for 1 min at room temperature, the pickling solution was removed; and the resultant mixture was washed once with 0.5 mL of PBS, and cell pellet was collected.
(§3) Cell pellet was collected for gamma counting. Both the blank and standard tubes were assayed simultaneously in each test.
Cell internalization rate=CPM of the cell lysate after acid pickling/CPM of the uptake experiment cell lysate×100%

Series [2] deals with LNCap cells. The series is described as follows: Experiment A efflux experiment. It counts as cell-based. The note with it: then 24 h in complete medium. As to the method: as §1, §2
Efflux experiment: after the incubation was completed, the cell suspension was collected, washed once with 0.5 mL of complete medium, added with 0.5 mL of complete medium, after resuspension, the resultant mixture was placed into original wells, incubated at 37° C. for 24 h, and then the supernatant was collected, and washed once with 0.5 mL of PBS. Cell pellet was collected after centrifugation of the supernatant and PBS washing solution; and 0.5 mL of 1 M lysis solution was utilized to digest and lyse cells in the original wells, and combined with the cell pellet.
as §3
Cell efflux rate=CPM of the efflux experiment cell lysate/CPM of the uptake experiment cell lysate×100%

Series [3] relates to LNCap cells. As to the kind of experiment: Experiment A cell uptake experiment (cell binding rate). It counts as cell-based. The note with it: for uptake rate of the blocking group: unlabeled ligand 200 times that of labeled subject; for uptake rate: 37° C. As for the experimental part:
as §1
Unlabeled ligands Dar, DOTA, Dar-PSMA-617, and DOTA-PSMA-617 were respectively formulated to be 10 μg/mL and 25 μg/mL with basic medium (with 1% HSA added) for subsequent use.
as §2
Uptake experiment: blocking groups were set in cell uptake experiment, and unlabeled ligands were added in an amount of 200 times that of labeled subjects. After incubation was completed, the cell suspension was collected, followed by centrifugation at 1500 rpm for 5 min, cell pellet was collected, the supernatant was removed, the cell pellet was washed once with 0.5 mL of pre-cooled PBS, and the resultant cell pellet was collected.
as §3
Cell binding rate=CPM of the cell lysate/CPM of the standard tube×100%

The conditions of series [4]: male, SD, rat, in vivo, iv.
Method: About 0.1-0.2 mL of blood was collected from jugular vein plexus of the experimental animals at 5 min, 15 min, 30 min, 1 h, 2 h, 3 h, 4 h, 5 h, 6 h, 8 h, 12 h, 24 h, 48 h, 72 h, 96 h, 120 h, 144 h, and 168 h after the administration, and the rats were weighed for subsequent assay. Blood was collected from 6 males in each group at each time point, and 12 animals were cross-sampled. Each sample was subjected to gamma counting for 30 s.
Series [5] is classed as physicochemical. The note with it: 48 h. As to the method: (§4) HPLC: standard UV peak Rt=10.548 min, radioactive peak Rt=10.809 min, corresponding to the peak position of the standard.
The subject of another series is LNCap tumor-bearing mice. The series is described as follows: PET imaging after tail vein injection. Format: in vivo. The note with it: single intravenous administration, 200 μCi. As for the experimental part: Method: LNCap tumor-bearing mice were injected with the complex ^89Zr-Dar-PSMA-617 (200 μCi) prepared in Example 9 through tail vein, while dynamic scan was performed for 60 min during the administration, and static whole body scan was performed for 10 min at different time points during 2-216 h after the administration. Refer to FIG. 1 for the mouse PET scanning image.
Method: LNCap tumor-bearing mice were injected with the complex (200 μCi) prepared in Example 7 through tail vein, dynamic scan was performed for 60 min during the administration, and the static whole body scan was performed for 10 min at different time points of 2-192 h after the administration. Refer to FIG. 2 for the mouse PET scanning image.
Method: LNCap tumor-bearing mice were injected with the complex ^68Ga-Dar-PSMA-617 (200 μCi) prepared in Example 10 through tail vein, dynamic scan was performed for 60 min during the administration, and the static whole body scan was performed for 10 min at different time points of 2-6 h after the administration. Refer to FIG. 3 for the mouse PET scanning image.

Series [6] can be described thus: In vitro stability of labeled product in mouse serum (radiochemical purity after 48 h). It counts as in vitro ADME. As to the method:
as §4

Series [7] has as its system LNCap tumor-bearing mice animal models. As to the kind of experiment: ^177Lu-Dar-PSMA-617 treatment study (tumor size, body weight, clinical observation). It counts as in vivo. As for the experimental part: LNCap tumor-bearing mice animal models were used.
Experimental Groups: • (A)^177Lu-Dar-PSMA-617 low dosage 0.25 mCi (n=7); • (B)^177Lu-Dar-PSMA-617 medium dosage 0.5 mCi (n=10); • (C)^177Lu-Dar-PSMA-617 high dosage 1 mCi (n=10).
Positive Control Groups: • (D)^177Lu-DOTA-PSMA-617 0.5 mCi (n=7); • (E)^177Lu-DOTA-PSMA-617 1 mCi (n=10).
Negative Control Groups: • (F) ^177LuCl3 1 mCi (n=10); • (G) normal saline (n=10)
Method: the day of administration was recorded as D-0, and body weight and tumor size were measured every day or every other day. After administration of ^177Lu-Dar-PSMA-617 (Group C), SPECT scan was performed at 4 h, 24 h, 72 h, 120 h, and 240 h after the administration; the control groups ^177Lu-DOTA-PSMA-617 (Group E) and ^177LuCl3 (Group F) were respectively subjected to SPECT scan at 2 h, 24 h, 72 h, and 120 h (240 h) (refer to FIG. 7, group C, group E, and group F in sequence from top to bottom). The animals were kept stationary, and CT scan was completed before/after the SPECT scan. Prior to the scan, the animals were subjected to respiratory anesthesia with isoflurane through an anesthesia machine, and the animals having undergone anesthesia induction were placed on a SPECT/CT bed. During the scan, the animals continuously inhaled isoflurane to maintain anesthesia effect. Each bed was statically scanned for 10-30 min and scan time was recorded.

Series [8] relates to MC38/MC38-hPDL1 bilateral tumor-bearing mice. As to the kind of experiment: ^89Zr-Dar-KN035 PET imaging study. Format: in vivo. As for the experimental part: Method: MC38/MC38-hPDL1 bilateral tumor-bearing mice were injected with the ^89Zr-Dar-KN035 (100 μCi) through tail vein, wherein MC38 was a tumor low-expressing PDL1, and MC38-hPDL1 was a tumor high-expressing PDL1. Dynamic scan was performed for 60 min during the administration, and static whole body scan was performed for 10 min at different time points of 1-168 h after the administration. A mouse PET scanning image is shown in FIG. 10, with MC38 on the left and MC38-hPDL1 on the right.

With `O=C([O-])CN1CCN(CC(=O)[O-])CCN(CC(=O)[O-])CCN(CC(=O)[O-])CC1.[177Lu+3].[H+]` [^177Lu-DOTA], the values for the internalization rate with LNCap cells [1] (1 h incubation), with LNCap cells [1] (4 h incubation) and in the series with LNCap cells [1] (24 h incubation) were 35.46%, 165.46% and 8.33%, respectively. Moreover, the efflux rate in the series with LNCap cells [2] (1 h incubation) is reported as 76.83%; in the series with LNCap cells [2] (4 h incubation), 63.22%; in the series with LNCap cells [2] (24 h incubation) it was 9.38%. Further, the “uptake rate of the blocking group” value is listed as 0.26% with LNCap cells [3] (1 h), 0.24% in the series on LNCap cells [3] (4 h) and 1.97% with LNCap cells [3] (24 h). Moreover, the uptake rate with LNCap cells [3] (1 h incubation) was 0.22%; with LNCap cells [3] (4 h incubation), 0.20%; with LNCap cells [3] (24 h incubation), 2.01%.
On to `Cc1cc2c(O)c(c1)CN(CC(=O)O)Cc1cccc(n1)CN(CC(=O)NC[C@H]1CC[C@H](C(=O)N[C@@H](Cc3ccc4ccccc4c3)C(=O)NCCCC[C@H](NC(=O)N[C@@H](CCC(=O)O)C(=O)O)C(=O)O)CC1)Cc1cc(C)cc(c1O)CN(CC(=O)O)Cc1cccc(n1)CN(CC(=O)O)C2` [^89Zr-Dar-PSMA-617, metal not drawn], for which the “half-life period in blood” value in series [4] came out at 4.57 h. In addition, in [5] (normal saline, 37° C. water bath incubator), the “radiochemical purity after incubation in normal saline” value was 98%. Also, in series [5] (room temperature), the “radiochemical purity after being placed at room temperature” value stood at 98%. Moreover, the “main distribution of radioactive substances” value in the series on LNCap tumor-bearing mice was “mainly distributed in the bladder and kidneys”. Besides, the “radiochemical purity after incubation in mouse serum” value in series [6] is 96%.
Turning to `[177Lu+3].[Cl-].[Cl-].[Cl-]` [^177LuCl3], the body weight change result in series [7] (1 mCi (Group C, Group F)) is recorded as “decrease rapidly”. Also, in series [7] (1 mCi (Group F)), the “adverse effects (conclusion)” value is reported as “severe adverse effects”; the “gross anatomy of dead mice” value was “skeletal darkening and blood stasis of bone marrow”. The animal clinical observation result in series [7] (1 mCi (Group F), starting from D-5, all animals at the later stage) was “weight loss and arched back”.

B1: ^89Zr-Dar-KN035 (conjugate, chains of the INN, looked up)
VH: QVQLVESGGGLVQPGGSLRLSCAASGKMSSRRCMAWFRQAPGKERERVAKLLTTSGSTYLADSVKGRFTISRDNSKNTVYLQMNSLRAEDTAVYYCAADSFEDPTCTLVTSSGAFQYWGQGTLVTVSS
modifications: 89Zr with Dar chelator
Take B1: in [8] (100 μCi tail vein, PET 1-168 h), the “uptake in tumor high-expressing PDL1 (MC38-hPDL1)” value is “significantly taken up” and the “uptake in tumor low-expressing PDL1 (MC38)” value is recorded as “almost not taken up”. In addition, the tumor selectivity entry in series [8] (MC38-hPDL1 versus MC38) is “good tumor selectivity”.
